Data on six compounds can be found in US20240398772A1, “OXASPIRO DERIVATIVE, AND PREPARATION METHOD THEREFOR AND USE THEREOF” (SHUJING BIOPHARMA CO., LTD, priority 2021, published 2024).

One assay concerns the target T1, MOR (Homo sapiens, UniProt P35372).
T1 construct: expressed in transfected cells; host or cells: CHO-K1/OP3 (name from the earlier reading)
Briefly: Agonist test on MOR, cAMP level (CHO-K1/OP3 cells, cAMP assay kit). It counts as cell-based. The settings on record: for pEC50: forskolin-stimulated cAMP, read-out: EC50 agonizing MOR receptor to affect cAMP level; for Emax: maximal effect of DAMGO is 100%, read-out: Emax agonizing MOR receptor to affect cAMP level. As for the experimental part: 5×stimulation buffer was diluted to 1× with ddH2O, an appropriate amount of 500 mM IBMX (generally, the IBMX stock solution was prepared to be 500 mM, namely 1000×) was added to enable the final concentration of the IBMX to be 0.5 mM, and the mixture was mixed well for later use (after the IBMX was added, that precipitation occurred was normal, and the precipitate was dissolved by well mixing). It must be prepared right before use.
1.3.1.2 IBMX was dissolved with DMSO to prepare a 500 mM stock solution, which was aliquoted into 20 μL/tube and cryopreserved at −80° C. to avoid repetition of freezing and thawing.
1.3.1.3 Forskolin was dissolved with DMSO to prepare a 10 mM stock solution, which was aliquoted into 20 μL/tube and cryopreserved at −20° C. for later use.
The CAMP standard substance in the kit returned to room temperature, and an equivalent amount of the experimental buffer was added according to the volume marked on the bottle label. The mixture was vortexed for mixing, aliquoted according to 50 μL/tube, and cryopreserved at −20° C. for later use.
5 mL ddH2O was added to a bottle of cAMP-d2 and a bottle of anti-cAMP-cryptate lyophilized powder, respectively, and the mixture was mixed well by gently turning the mixture upside down, aliquoted according to 125, 62.5, and 30 μL, and the like, and cryopreserved in the dark at −80° C.
1.3.2.1 Positive compound DAMGO and the test compound were serially diluted 4-fold to obtain 10 concentrations with Bravo using experimental buffer in a compound plate (Greiner-781280) at a starting concentration of 2 μM (from DMSO stock solution diluted with experimental buffer) and 20 μM (from DMSO stock solution diluted with experimental buffer), respectively.
1.3.2.2 Cells cryopreserved were thawed in a water bath at 37° C., the cell suspension was added to a centrifuge tube containing 10 mL of HBSS buffer, and the mixture was centrifuged at 750 rpm for 5 min. The supernatant was discarded, the pellet was resuspended in an appropriate amount of experimental buffer, and 20 μL of the pellet was counted using a cell counter. An appropriate amount of the cell suspension was diluted to 0.4×10^6 cells/mL, and 5 μL of the cell suspension was added to each well of a cell plate (the cell density was 2000 cells/well) and centrifuged at 1000 rpm for 1 min. 5 μL of the diluted compound was transferred to a cell plate (PerkinElmer-6008280) with Bravo, 5 μL of 2 μM DAMGO (the final concentration was 1 μM) was transferred to positive control wells, and an equal volume of experimental buffer was transferred to negative control wells, and the cell plate was centrifuged at 1000 rpm for 1 min. The cell plate was sealed and incubated at room temperature for 15 min. Forskolin was diluted to 0.2 mM with DMSO, 25.1 nL of which was transferred to a cell plate with Tecan-D300e, and the plate was centrifuged at 1000 rpm for 1 min, sealed, and incubated at room temperature for 45 min.
The final concentration of the initial point was 712 nM.
1.3.2.4 Preparation of detection reagent: an appropriate amount of a cAMP-d2 stock solution and an anti-cAMP-cryptate stock solution was diluted with a lysis buffer according to the ratio of 1:20, the two solutions were then mixed well by turning the solutions upside down according to the ratio of 1:1, and vortexing was prohibited. 10 μL of the prepared detection reagent was added to a cell plate and centrifuged at 1000 rpm for 1 min. The cell plate was incubated at room temperature for 1 h in the dark. After the cell plate was centrifuged at 1000 rpm for 1 min, the plate was read using Envision. Excitation light at 340 nm, emission light at 620 nm and 665 nm.
The formula for calculating the compound activation rate in the agonist test: […]

For another assay, the target named is T2, MOR beta-arrestin (Homo sapiens, UniProt P35372).
T2 construct: expressed in transfected cells; host or cells: MOR beta-arrestin cell strain (U2OS/OPRM1 PathHunter per the earlier reading), kept under Hygromycin B and G418 selection
The assay is described as follows: MOR beta-arrestin agonist test (PathHunter, U2OS/OPRM1 cell line). In kind it is cell-based. The note with it: Human Mu opioid β-arrestin U2OS/OPRM1 cell line; for Emax: maximal effect of DAMGO is 100%, read-out: Emax for activating beta-arrestin signaling pathway; for pEC50: read-out: EC50 for activating beta-arrestin signaling pathway. On the procedure: • Cell complete medium: MEM+10% FBS+1% PS+250 μg/mL Hygromycin B+500 μg/mL G418 +1×GlutaMAX • Cell inoculation medium: MEM+10% FBS+1% PS • Experimental buffer: 1×DPBS+0.1% BSA • Detection reagent: Galacton Star:Emerald II:PathHunter cell assay buffer=1:5:19
• i) Compound samples were dissolved in DMSO to a stock concentration of 10 mM; • ii) A sample dilution sequence on a 384-well LDV plate was prepared, wherein the first concentration point of the sample was 10 mM (FAC=30 μM), and the sample was serially diluted 3.162-fold to obtain a total of 11 concentration points; • iii) The sample dilution sequence and HPE and ZPE were transferred to a compound plate (PE #6008590) using an Echo machine, with each well 90 nL transferred.
• i) The MOR beta-arrestin cell strain was cultured in a cell complete medium at 37° C. with 5% CO2 to a confluence of 70-90%; • ii) the cells were digested and resuspended in the cell inoculation medium, and 20 μL of the MOR beta-arrestin cell suspension was added to each well of an assay plate (Corning #3570) at 7500 cells/well and incubated in an incubator at 37° C. with 5% CO2 for 24 h; • iii) 30 μL of an experimental buffer was added to a compound plate (PE #6008590), and the plate was centrifuged at 1000 rpm for 5 min; • iv) after 24 h, the assay plate was taken out, the medium was removed from the plate, and then 20 μL of the compound was transferred from each corresponding well of the compound plate to the assay plate with Bravo; • v) the assay plate was centrifuged at 500 rpm for 30 s and then placed into an incubator for incubation at 37° C. with 5% CO2 for 90 min; • vi) 10 μL of the beta-arrestin detection reagent was added to each well of the assay plate; • vii) after 1 h of incubation at room temperature in the dark, the plate was read on Envision.
The experimental data of the percent activation rate and concentrations of 11 points were fitted using XLFit to a parameter nonlinear logic
Use formula to calculate the EC50 value of the compound, and the results are shown in Table 7 (maximal effect of DAMGO is 100%).

Assay [1] deals with pain threshold of a mouse. Briefly: Mouse thermal radiation tail-flick method. It counts as in vivo, ICR mice. The settings on record: for Maximum analgesic percentage (% MPE): ICR mice, intragastric 10 mg/kg, Mean ± SEM, n = 9-10. As for the experimental part:
• Intragastric administration at a dose of 10 mg/kg;
ICR mice (normal grade, weighed 25-35 g, purchased from Shanghai Slac Laboratory Animal Co., Ltd.) were first mounted in a special plastic cylinder, their tails were exposed and allowed to droop naturally, and the measurements were made after the animals were calm. The radiation heat source could be an 8.75 mm projection lamp (32 W, adjustable). A light beam with the diameter of about 4 mm was emitted after being focused by a lens, which irradiated the skin at the junction of the middle third and the lower third of the tail (the light source and the skin at the tail must be closely attached); an electronic timer connected with the light source in parallel was used to synchronously record the irradiation duration, that is, when the irradiation started, a stopwatch was automatically started at the same time. When the tail of the animal obviously evaded, the timing was automatically stopped. The measured time interval was the tail flick latency. Mice with tail flick latency of 2-6 seconds were screened to participate in a grouping administration experiment. […] After a dose of a drug was administered to the mice, the pain threshold of the mice was measured at different times.
After a dose of a drug was administered to the mice, the pain threshold of the mice was measured at 0.5 h, 1 h, 2 h, and 3 h (effect view of the analgesic effect is shown in FIG. 1). The formula for calculating the maximum analgesic percentage (% MPE) after administration was as follows: % MPE=(post-administration pain threshold−pre-administration pain threshold)/(15−pre-administration pain threshold)×100%.
(Hot-plate and tail-flick tests time the reaction to a heat stimulus.)

Molecules are shown by their SMILES. pEC50: −log10 of the molar value.

T2 sequence (P35372 whole entry): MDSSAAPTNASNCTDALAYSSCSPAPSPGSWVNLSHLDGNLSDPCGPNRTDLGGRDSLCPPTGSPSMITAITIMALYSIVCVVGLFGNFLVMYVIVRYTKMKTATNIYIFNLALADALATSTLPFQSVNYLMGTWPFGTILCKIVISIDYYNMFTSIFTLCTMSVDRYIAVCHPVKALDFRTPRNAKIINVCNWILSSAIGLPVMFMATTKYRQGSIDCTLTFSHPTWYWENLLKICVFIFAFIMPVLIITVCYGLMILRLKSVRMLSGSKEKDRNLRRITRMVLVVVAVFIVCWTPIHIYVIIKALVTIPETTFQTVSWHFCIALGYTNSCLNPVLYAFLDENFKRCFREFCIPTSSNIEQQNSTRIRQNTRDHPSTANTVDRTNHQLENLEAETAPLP
T1 sequence (P35372 whole entry): as above

What is called pEC50 is the negative decadic logarithm of the EC50, by convention in mol/L. One may read the Emax as the size of the effect at its maximum, as opposed to the concentration needed. For `Fc1ccc(C2(CCNC3Cc4ccccc4C3)CCOC3(CCOCC3)C2)nc1` (stereo not drawn) [Compound 8, N-(2-(4-(5-fluoropyridin-2-yl)-1,9-dioxaspiro[5.5]undecan-4-yl)ethyl)-2,3-dihydro-1H-inden-2-amine], the pEC50 is 8.06 on MOR and 6.44 on MOR beta-arrestin. Also, the Emax stood at 72% at MOR and 2.1% on MOR beta-arrestin.
With `Fc1ccc([C@]2(CCNC3Cc4ccccc4C3)CCOC3(CCOCC3)C2)nc1` [Compound 8-1, (R)—N-(2-(4-(5-fluoropyridin-2-yl)-1,9-dioxaspiro[5.5]undecan-4-yl)ethyl)-2,3-dihydro-1H-inden-2-amine], the “Maximum analgesic percentage (% MPE)” value in assay [1] (0.5 h after administration) amounted to 80.64 ± 9.27 %; in assay [1] (1 h after administration) it was 85.69 ± 5.95 %; in assay [1] (2 h after administration), 69.94 ± 10.43 %; in assay [1] (3 h after administration), 87.16 ± 6.80 %. In assay [1] (mouse tail flick, 0.5-3 h after administration), the “Maintenance of the analgesic effect compared with oxycodone” value is on record as “maintained for a longer period of time”. The “Drug effect compared with oxycodone” value in assay [1] (mouse tail flick, same dose (10 mg/kg intragastric)) is on record as “better drug effect than oxycodone”. For the same compound, the results for the pEC50 at MOR and on MOR beta-arrestin were 8.39 and under 4.52, respectively. For the same compound, the Emax at MOR was 92.8%; on MOR beta-arrestin it was 3%.
Regarding `Fc1ccc(C2(CCNC3Cc4cccc(Br)c4C3)CCOC3(CCOCC3)C2)nc1` (stereo not drawn) [Compound 10, 4-bromo-N-(2-(4-(5-fluoropyridin-2-yl)-1,9-dioxaspiro[5.5]undecan-4-yl)ethyl)-2,3-dihydro-1H-inden-2-amine], at MOR, the pEC50 was 8.55 and the Emax was determined as 80.9%. Further, at MOR beta-arrestin, the Emax came to 4.5% and the pEC50 is 5.32.
For `Cc1c(Cl)cccc1CNCCC1(c2ccc(F)cn2)CCOC2(CCOCC2)C1` (stereo not drawn) [Compound 12, N-(3-chloro-2-methylbenzyl)-2-(4-(5-fluoropyridin-2-yl)-1,9-dioxaspiro[5.5]undecan-4-yl)ethan-1-amine], in that order: 8.12, 89.8%, 6.3% and under 4.52.
Regarding `Fc1ccc([C@]2(CCNCc3cccc(Cl)c3Cl)CCOC3(CCOCC3)C2)nc1` [Compound 13-1, (R)—N-(2,3-dichlorobenzyl)-2-(4-(5-fluoropyridin-2-yl)-1,9-dioxaspiro[5.5]undecan-4-yl)ethan-1-amine], the pEC50 at MOR was 7.73; on MOR beta-arrestin, under 4.52. The Emax at MOR was 78.6%; on MOR beta-arrestin it was 4.2%.
In the case of `c1ccc(C2(CCNC3CCc4ccccc43)CCOC3(CCOCC3)C2)nc1` (stereo not drawn) [Compound 15, N-(2-(4-(pyridin-2-yl)-1,9-dioxaspiro[5.5]undecan-4-yl)ethyl)-2,3-dihydro-1H-inden-1-amine], the pEC50 is 7.51 on MOR and 5.75 at MOR beta-arrestin. Besides, the Emax at MOR was determined as 96.9%; at MOR beta-arrestin it was 7.2%.
